Values after ≈ are worked out from the molar mass of the structure shown. Values joined by “and” are separate entries in the source; they are usually repeats but may differ in a detail not shown here. Identical values can stand only once.
Assays:
[1] = pH not given; cited from earlier work
Solubility in water = assay type: physicochemical; details: pH = 6.5, isoquercitrin purity 96.5%
Text: The hydrophilicity/lipophilicity of a compound is often crucial for assessing its bioavailability. Flavonoids are generally poorly soluble in water; aqueous solubility increases at alkaline pH as phenols are weak acids. […] [15]).

[2] = ABTS radical cation scavenging (Antioxidant Assay Kit); assay type: biochemical; details: Trolox equivalents; aqueous buffer pH 5; mean ± SE
Protocol: Determination of ABTS scavenging activity involves an electron-transfer reaction. […] The capacity to scavenge the radical cation (ABTS^·) was evaluated using the Antioxidant Assay Kit (CS0790, Sigma-Aldrich, Prague, Czech Republic) and expressed as Trolox equivalents (TE) from the Trolox calibration curve.

[3] = DPPH radical scavenging assay; assay type: biochemical; details: methanol, DPPH 20 µM, 30 min; mean ± SE
Protocol: When reduced, the solution decolorizes in proportion to the strength and concentration of the antiradical compound tested. The results of this test are usually expressed as the concentration of the compound that reduces 50% of the radical (IC50, Table 1). […] However, no clear relationship between the carboxylic chain length and DPPH radical scavenging activity could be established. Antiradical activity was evaluated spectrophotometrically as the ability of the substances to reduce the DPPH radical as described previously with minor modifications.

[4] = system: rat liver microsomal membranes; assay: Inhibition of microsomal lipid peroxidation induced by tert-butyl hydroperoxide (TBARS); assay type: biochemical; details: male rat liver microsomes, tert-butylhydroperoxide 1 mM, 37 °C, 30 min, TBARS; mean ± SE; read-out: Lpx (IC50; µM)
Text: Lipid peroxidation is a type of oxidative degradation of lipids caused by free radicals in cell membranes, resulting in cell damage. The most notable initiators of this chain reaction in living cells are reactive oxygen species (ROS), such as OH· and HO2·, which combine with a hydrogen atom to make water and a fatty acid radical. We used tert-butyl hydroperoxide, a relatively stable organic peroxide, as initiator of peroxidation of rat liver microsomal membranes. The inhibition of this reaction depends not only on the free radical scavenging capacity, but also on the capacity of these compounds to interact with and penetrate lipid bilayers. Isoquercitrin derivatives differed considerably in their capacity to inhibit the peroxidation of microsomal membranes. […] A similar trend, e.g., improving the activity in medium chain derivatives with subsequent drop for longer chain esters, was reported for anti-proliferative activity of IQ monocarboxylic acid esters on the growth of tumoral Caco2 cells, and also for the inhibition of tyrosinase activity.
Pooled microsomes from male rat livers (M9066, Sigma-Aldrich, Prague, Czech Republic) were washed five times using centrifugation and phosphate-buffered saline (PBS, 13,500 rpm, 5 min, 4 °C) to remove sucrose. In addition, 400 µL of the diluted microsomal suspension (0.625 mg protein/mL in PBS), the compounds tested in 50 µL of dimethyl sulfoxide (DMSO, final concentration 5–2000 µM) and 50 µL of tert-butylhydroperoxide in PBS (final concentration 1 mM) were mixed and incubated at 37 °C for 30 min. Determination of lipid peroxidation products as thiobarbituric acid reactive substances (TBARS) and calculation of the IC50 values were performed as described previously.

[5] = Folin–Ciocalteau reduction (FCR) assay, reducing capacity; assay type: biochemical; details: gallic acid equivalents; mean ± SE
Protocol: Folin-Ciocalteu assay, commonly known as the total phenols assay, determines a sample reducing capacity. FCR contains heteropolyphosphotunstate-molybdates, which are reduced in aqueous milieu at pH ≈ 10 to blue species, presumably (PMoW11O40)^4- [29]. […] This is probably related to high hydrophobicity of these derivatives. Reducing capacity was evaluated using Folin-Ciocalteau reagent with minor modifications as described previously.

[6] = 50 °C, cited from earlier work

For `O=c1c(O[C@@H]2O[C@H](CO)[C@@H](O)[C@H](O)[C@H]2O)c(-c2ccc(O)c(O)c2)oc2cc(O)cc(O)c12` [Compound 1, quercetin-3-O-β-D-glucopyranoside, reference compound], the solubility in water [1] is listed as 95 mg/L (≈ 205 µM), the solubility (Solubility in water) is listed as 360 µg/mL (≈ 775 µM) and the “ABTS (TE)” value [2] is listed as 1.97 TE and 1.97 ± 0.06 ^i TE. For the same compound, the IC50 [3] was 1.4 ± 0.06 µM, the IC50 [4] was 972 ± 11 µM and the “FCR (GAE)” value [5] was 1.84 GAE and 1.84 ± 0.04 ^a GAE. For the same compound, the solubility in acetone ([6]; acetone) was 14 g/L (≈ 30100 µM), the solubility in acetonitrile ([6]; acetonitrile) was 1.8 g/L (≈ 3880 µM) and the “solubility in tert-amyl alcohol” value ([6]; tert-amyl alcohol) was 30 g/L (≈ 64600 µM).

Reference: paper PMC4926433, “Isoquercitrin Esters with Mono- or Dicarboxylic Acids: Enzymatic Preparation and Properties” (International Journal of Molecular Sciences, 2016)
